For this assay, the species on record is Rattus norvegicus. Kind of assay: Antiplatelet activity in Sprague-Dawley rat plasma assessed as shear induced platelet aggregation at 10 uM. Format: functional.
Consider `CC(=O)Oc1ccccc1C(=O)O` [ASPIRIN], for which the Activity was determined as 44.7%.
As to `C=C(COC(=O)/C=C/c1ccc(O)c(O)c1)C(O)CO[C@@H]1O[C@H](CO)[C@@H](O)[C@H](O)[C@H]1O` (stereo partly drawn) [PUBESCENOSIDE A], the Activity was found to be 36.55%.
Turning to `C=C(CO)C(CO[C@@H]1O[C@H](CO)[C@@H](O)[C@H](O)[C@H]1O)OC(=O)/C=C/c1ccc(O)c(O)c1` (stereo partly drawn) [PUBESCENOSIDE B], the Activity came to 27.3%.

The record behind these values is ChEMBL document CHEMBL1158706, “Hemiterpene glucosides with anti-platelet aggregation activities from Ilex pubescens” (2005).
